Test results as given in US8034388B2, “Anthocyanin-rich compositions and methods for inhibiting cancer cell growth” (The University of Maryland, priority 2003, dated 2011).

Legend:
[1] = test system: HCT-15 cells derived from human colon carcinoma; conditions: Kamei and coworkers (1995); cited from earlier work
HT-29 colon cancer cells = assay: Cell proliferation of HT-29 cells (hemacytometer count, Trypan blue exclusion); format: cell-based, human; conditions: HT-29 carcinoma cells, pure anthocyanin
Experimental: Cell Culture—Human HT-29 colon cancer cells (ATCC, HTB 38) were grown in McCoy's 5A medium (BioWhitaker Inc., Walkersville, Md.), and normal colon epithelial cells, NCM460 (INCELL Corp. LLC, Austin, Tex.) were grown in 25% conditioned M3:10 medium (INCELL Corp., LLC). Media were supplemented with 10% fetal bovine serum (FBS) and 1× antibiotic-antimycotic (Invitrogen Corporation, Carlsbad, Calif.), and cells were maintained in a humidified atmosphere of 95% air/5% CO2 at 37° C. […] Cell Proliferation—Freshly trypsinized cells were seeded in 25-cm^2 (1×10^6 cells) or 75-cm^2 (2×10^6 cells) flasks in duplicate. The cells were grown for 24 h under normal growth conditions prior to treatment with chokeberry ARE. Freshly prepared ARE was added in concentrations ranging from 10 to 200 μg monomeric anthocyanin/ml medium. A vehicle control contained acidified water and was added at the same volume as ARE added to treated cells. […] Prior to exposure to ARE for 24 h, 48 h or 72 h treatments, the medium was replaced with fresh medium (10% FBS) containing either vehicle control (acidified water) or ARE. For each time point, the cells were trypsinized and centrifuged at 400 g for 10 min at room temperature. Aliquots of cells were counted using a hemacytometer and viability measured using Trypan blue dye exclusion.

SMILES: Oc1cc(O)c2cc(O)c(-c3ccc(O)c(O)c3)[o+]c2c1 [cyanidin, Cyanidin]
- dose for 50% cell growth suppression [1]: 2 µg/mL

SMILES: OC[C@H]1O[C@@H](Oc2cc3c(O)cc(O)cc3[o+]c2-c2ccc(O)c(O)c2)[C@H](O)[C@@H](O)[C@H]1O [cyanidin-3-galactoside]
- cancerous colonic cell growth (visual observations of cell growth and viability) (HT-29 colon cancer cells): notably inhibited

SMILES: Oc1cc(O)c2cc(O)c(-c3cc(O)c(O)c(O)c3)[o+]c2c1 [delphinidin, Delphinidin]
- dose for 50% cell growth suppression [1]: 0.5 µg/mL

SMILES: Oc1ccc(-c2[o+]c3cc(O)cc(O)c3cc2O)cc1 [pelargonidin, Pelargonidin]
- dose for 50% cell growth suppression [1]: 5 µg/mL
